# Source: patent US9656978B2, “Acylpiperazines as inhibitors of transglutaminase and their use in medicine” (ASTON UNIVERSITY, priority 2012, dated 2017)
# Experiments:
# [1] = target: T1, purified recombinant human TG2 (tissue transglutaminase) (Homo sapiens, UniProt P21980); experiment: TG2 transamidation activity, biotin X-cadaverine incorporation into N,N′-dimethylcasein (Example 2); type: biochemical; details: recombinant human TG2 400 ng/ml, 2 h at 37° C.
# T1 construct: purchased Zedira, Germany
# T1 sequence (P21980 1-687): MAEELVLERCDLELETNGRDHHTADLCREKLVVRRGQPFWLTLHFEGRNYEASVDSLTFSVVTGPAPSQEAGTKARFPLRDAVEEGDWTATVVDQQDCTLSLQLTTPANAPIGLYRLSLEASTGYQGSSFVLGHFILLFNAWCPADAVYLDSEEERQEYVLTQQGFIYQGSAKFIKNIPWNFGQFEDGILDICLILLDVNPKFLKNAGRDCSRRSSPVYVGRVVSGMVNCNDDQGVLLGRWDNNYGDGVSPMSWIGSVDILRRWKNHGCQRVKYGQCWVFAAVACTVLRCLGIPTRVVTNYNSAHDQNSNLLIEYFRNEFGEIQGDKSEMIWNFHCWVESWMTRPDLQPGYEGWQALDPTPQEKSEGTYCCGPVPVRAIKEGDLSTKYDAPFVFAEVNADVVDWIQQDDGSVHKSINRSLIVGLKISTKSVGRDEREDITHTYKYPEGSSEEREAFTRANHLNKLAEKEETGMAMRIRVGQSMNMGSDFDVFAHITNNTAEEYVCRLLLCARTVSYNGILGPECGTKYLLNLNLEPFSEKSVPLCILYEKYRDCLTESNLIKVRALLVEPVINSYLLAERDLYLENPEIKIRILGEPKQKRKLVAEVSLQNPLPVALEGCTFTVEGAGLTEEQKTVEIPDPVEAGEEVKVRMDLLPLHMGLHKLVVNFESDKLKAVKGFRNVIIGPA
# Description: TG transamidation activity and the affect of inhibitors on activity was measured by biotin X-cadaverine incorporation into N,N′-dimethylcasein. After coating 96 well plates with 100 μl of 10 mg/ml N,N′-dimethylcasein in 50 mM Tris-Cl, pH8 at 4° C. over night, plates were washed with TBS-0.05% Tween-20(v/v), pH 7.6 and TBS, pH 7.6, and 100 μl purified recombinant human TG2 (400 ng/ml Zedira, Germany) (tissue transglutaminase) in 50 mM Tris-HCl, pH7.4, containing 1 mM DTT, 10 mM CaCl2 and 0.1 μM biotin-cadaverine added into the coated wells containing the appropriate concentration of inhibitor. The reaction was allowed to proceed for 2 h at 37° C. The plate was then washed twice with TBS-Tween-20 (v/v), pH 7.6 and once with TBS, pH 7.6 before being blocked with 100 μl of blocking buffer (3% (w/v) BSA in TBS-Tween, pH 7.6) for 30 min at 37° C. After blocking, the wells were incubated with 100 μl HRP-conjugated Extr-Avidin peroxidase (Sigma-Aldrich, UK) in blocking buffer (1:1,000 dilution) for 1 h at 37° C. After another set of washes, TG2 activity was measured using Sigma Fast OPD, tablets dissolved in 20 ml of distilled H2O. The colour was developed by adding 2.5 M H2SO4 and the absorbance at 490 nm measured using a microplate reader ELx808™. All inhibitors were dissolved in DMSO as a 100 mM solution prior to addition to the assay.
# Factor X111a = target: T2, Factor X111a (Homo sapiens, UniProt P00488); experiment: TG-CovTest commercial microassay, Factor X111a; type: biochemical; details: read-out: Estimated IC50 FXIII
# T2 sequence (P00488 39-732 limits assumed): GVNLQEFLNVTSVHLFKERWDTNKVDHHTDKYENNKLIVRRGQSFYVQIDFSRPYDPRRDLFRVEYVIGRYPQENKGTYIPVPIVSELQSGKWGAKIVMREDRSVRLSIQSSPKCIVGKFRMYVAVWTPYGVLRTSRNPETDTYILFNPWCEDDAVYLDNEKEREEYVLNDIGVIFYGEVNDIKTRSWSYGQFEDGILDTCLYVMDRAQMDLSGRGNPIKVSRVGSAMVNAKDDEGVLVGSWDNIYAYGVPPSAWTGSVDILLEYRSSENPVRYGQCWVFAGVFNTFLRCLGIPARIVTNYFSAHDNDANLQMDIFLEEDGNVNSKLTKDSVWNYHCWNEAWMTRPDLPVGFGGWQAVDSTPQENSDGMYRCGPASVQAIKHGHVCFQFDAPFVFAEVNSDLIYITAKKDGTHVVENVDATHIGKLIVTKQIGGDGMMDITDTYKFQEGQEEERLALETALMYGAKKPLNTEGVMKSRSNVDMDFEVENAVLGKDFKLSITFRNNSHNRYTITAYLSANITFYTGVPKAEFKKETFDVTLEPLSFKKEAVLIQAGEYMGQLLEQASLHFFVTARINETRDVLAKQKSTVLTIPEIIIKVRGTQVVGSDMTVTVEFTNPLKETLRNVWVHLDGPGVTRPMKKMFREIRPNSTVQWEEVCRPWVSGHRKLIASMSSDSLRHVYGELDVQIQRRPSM
# Excerpt: (§1) For determination of the activity of transglutaminase 1,transglutaminase 3 and Factor X111a, a commercial microassay was used, TG-CovTest (Covalab, Lyon, France; see also Perez et al. Anal Biochem. 2009; 389:150-156).
# transglutaminase 1 = target: T3, transglutaminase 1 (Homo sapiens, UniProt P22735); experiment: TG-CovTest commercial microassay, transglutaminase 1; type: biochemical; details: read-out: Estimated IC50 TG1
# T3 sequence (P22735 1-817): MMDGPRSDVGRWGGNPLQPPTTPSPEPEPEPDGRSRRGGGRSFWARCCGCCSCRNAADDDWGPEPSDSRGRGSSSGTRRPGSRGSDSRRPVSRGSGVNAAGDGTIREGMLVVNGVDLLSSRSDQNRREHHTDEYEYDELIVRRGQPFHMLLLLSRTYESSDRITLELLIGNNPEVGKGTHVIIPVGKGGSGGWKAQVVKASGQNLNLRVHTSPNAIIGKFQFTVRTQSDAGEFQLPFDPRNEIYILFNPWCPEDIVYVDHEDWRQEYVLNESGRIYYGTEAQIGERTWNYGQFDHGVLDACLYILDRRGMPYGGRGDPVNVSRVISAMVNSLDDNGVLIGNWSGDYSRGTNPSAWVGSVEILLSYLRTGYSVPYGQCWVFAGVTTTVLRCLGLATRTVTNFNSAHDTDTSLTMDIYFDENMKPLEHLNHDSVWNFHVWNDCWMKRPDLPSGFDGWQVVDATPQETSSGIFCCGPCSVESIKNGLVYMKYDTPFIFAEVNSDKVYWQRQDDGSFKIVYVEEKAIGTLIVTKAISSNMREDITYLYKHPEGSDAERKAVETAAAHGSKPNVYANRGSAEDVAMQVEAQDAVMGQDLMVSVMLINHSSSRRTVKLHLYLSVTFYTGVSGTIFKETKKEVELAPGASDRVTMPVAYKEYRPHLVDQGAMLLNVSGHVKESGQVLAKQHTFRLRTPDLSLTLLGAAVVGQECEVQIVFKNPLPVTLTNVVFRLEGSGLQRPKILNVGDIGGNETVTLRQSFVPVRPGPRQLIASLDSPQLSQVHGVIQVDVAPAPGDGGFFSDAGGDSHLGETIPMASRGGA
# Excerpt: as §1
# transglutaminase 3 = target: T4, transglutaminase 3 (Homo sapiens, UniProt Q08188); experiment: TG-CovTest commercial microassay, transglutaminase 3; type: biochemical; details: read-out: Estimated IC50 TG3
# T4 sequence (Q08188 1-693): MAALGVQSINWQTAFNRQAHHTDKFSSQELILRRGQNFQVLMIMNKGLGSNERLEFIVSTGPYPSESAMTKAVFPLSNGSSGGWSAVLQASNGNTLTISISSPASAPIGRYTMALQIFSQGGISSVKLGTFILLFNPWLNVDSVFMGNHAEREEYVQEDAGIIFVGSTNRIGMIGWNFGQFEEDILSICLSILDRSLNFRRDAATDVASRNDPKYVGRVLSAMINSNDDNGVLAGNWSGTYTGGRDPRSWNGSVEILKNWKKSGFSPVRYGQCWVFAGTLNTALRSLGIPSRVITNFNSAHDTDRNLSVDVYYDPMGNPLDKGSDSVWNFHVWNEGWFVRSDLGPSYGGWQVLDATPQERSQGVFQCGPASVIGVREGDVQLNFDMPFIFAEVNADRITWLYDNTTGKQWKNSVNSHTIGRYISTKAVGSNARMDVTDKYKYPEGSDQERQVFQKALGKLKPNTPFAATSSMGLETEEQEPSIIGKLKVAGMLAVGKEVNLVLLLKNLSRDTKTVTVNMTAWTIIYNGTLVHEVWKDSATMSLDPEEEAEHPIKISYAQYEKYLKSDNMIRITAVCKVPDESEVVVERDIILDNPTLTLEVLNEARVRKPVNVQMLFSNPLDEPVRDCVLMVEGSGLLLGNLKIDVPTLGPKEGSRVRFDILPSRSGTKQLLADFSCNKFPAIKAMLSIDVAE
# Excerpt: as §1
structure (smiles),measurement,setting,value
"C=CS(=O)(=O)NCC(=O)N1CCN(C(=O)C23CC4CC(CC(C4)C2)C3)CC1 [Compound 8e, N-[2-[4-(adamantane-1-carbonyl)piperazin-1-yl]-2-oxo-ethyl]ethenesulfonamide]",melting point,,159 to 160 °C
COC(=O)c1ccc2cc(COC(=O)N3CCN(C(=O)CNC(=O)C[S+](C)C)CC3)ccc2c1.[Br-],melting point,,125 to 126 °C
C[S+](C)CC(=O)NCC(=O)N1CCN(C(=O)OC(C)(C)C)CC1 [EB 1-46],IC50,[1],0.07 ± 0.007 µM
same,IC50,Factor X111a,> 100 µM
C=CC(=O)NCC(=O)N1CCN(C(=O)OCCC23CC4CC(CC(C4)C2)C3)CC1 [EB 1-181],IC50,Factor X111a,> 100 µM
O=C(CBr)NCC(=O)N1CCN(C(=O)OCCC23CC4CC(CC(C4)C2)C3)CC1 [EB 1-177],IC50,[1],0.0063 ± 0.00049 µM
same,IC50,Factor X111a,> 100 µM
C=CC(=O)NCC(=O)N1CCN(C(=O)C23CC4CC(CC(C4)C2)C3)CC1 [EB 2-16],IC50,transglutaminase 1,2 µM
same,IC50,Factor X111a,30 µM
C=CC(=O)NCC(=O)N1CCN(S(=O)(=O)c2cccc3c(N(C)C)cccc23)CC1 [EB 1-155],IC50,[1],0.0061 ± 0.00042 µM
same,IC50,transglutaminase 1,5 µM
same,IC50,Factor X111a,> 100 µM
same,IC50,transglutaminase 3,> 100 µM
CC(=O)NCC(=O)N1CCN(C(=O)OCc2ccccc2)CC1 [EB 1-44],IC50,[1],4.25 ± 0.78 µM
C[S+](C)CC(=O)NCC(=O)N1CCN(C(=O)OCc2ccc3ccccc3c2)CC1 [EB 1-91],IC50,Factor X111a,> 100 µM
Cc1c(C)[n+](C)c(SCC(=O)NCC(=O)N2CCN(C(=O)OC(C)(C)C)CC2)n1C [EB 1-45],IC50,[1],400 µM
CN(C)c1cccc2c(S(=O)(=O)N3CCN(C(=O)CNC(=O)CCl)CC3)cccc12 [EB 2-57],IC50,[1],0.0059 ± 0.00014 µM
C[C@H](NC(=O)CBr)C(=O)N1CCN(C(=O)OCc2ccccc2)CC1 [EB 1-101],IC50,[1],0.048 ± 0.006 µM
"C=CS(=O)(=O)NCC(=O)N1CCN(C(=O)OCc2ccccc2)CC1 [Compound 8a, benzyl 4-[2-(vinylsulfonylamino)acetyl]piperazine-1-carboxylate]",melting point,,66 to 67 °C
C=CC(=O)NCC(=O)N1CCN(C(=O)OCc2ccc3cc(C(=O)OC)ccc3c2)CC1 [EB 1-136],IC50,Factor X111a,> 100 µM
C[C@@H](NC(=O)CBr)C(=O)N1CCN(C(=O)OCc2ccccc2)CC1 [EB 1-100],IC50,[1],0.066 ± 0.001 µM
CC[S+](CC)CC(=O)NCC(=O)N1CCN(S(=O)(=O)c2cccc3c(N(C)C)cccc23)CC1 [EB 1-159],IC50,transglutaminase 1,> 100 µM
same,IC50,Factor X111a,> 100 µM
same,IC50,transglutaminase 3,> 100 µM
C[S+](C)CC(=O)NCC(=O)N1CCN(C(=O)C23CC4CC(CC(C4)C2)C3)CC1 [EB 2-18],IC50,Factor X111a,> 100 µM
CN(C)c1cccc2c(S(=O)(=O)N3CCN(C(=O)CNC(=O)C[S+](C)C)CC3)cccc12.[Br-],melting point,,98 to 99 °C
O=C(CBr)NCC(=O)N1CCN(C(=O)OCC23CC4CC(CC(C4)C2)C3)CC1 [EB 1-176],IC50,[1],< 1 µM
same,IC50,transglutaminase 1,2 µM
same,IC50,Factor X111a,> 100 µM
same,IC50,transglutaminase 3,25 µM
O=C(CBr)NCC(=O)N1CCN(C(=O)OCc2ccccc2)CC1 [EB 1-32],IC50,[1],0.75 ± 0.07 µM
COC(=O)c1ccc2cc(COC(=O)N3CCN(C(=O)CNC(=O)CBr)CC3)ccc2c1 [EB 1-137],IC50,Factor X111a,< 100 µM
C=CC(=O)NCC(=O)N1CCN(C(=O)OCc2ccc3ccccc3c2)CC1 [EB 1-81],IC50,Factor X111a,> 100 µM
CC(C)(C)OC(=O)N1CCN(C(=O)CNC(=O)CBr)CC1 [EB 1-37],IC50,[1],0.008 ± 0.003 µM
C[S+](C)CC(=O)NCC(=O)N1CCN(C(=O)OCC23CC4CC(CC(C4)C2)C3)CC1 [EB 1-178],IC50,Factor X111a,> 100 µM
C[S+](C)CC(=O)NCC(=O)N1CCN(C(=O)OCc2ccccc2)CC1 [EB 1-33],IC50,Factor X111a,> 100 µM
O=C(CBr)NCC(=O)N1CCN(C(=O)C23CC4CC(CC(C4)C2)C3)CC1 [EB 2-17],IC50,Factor X111a,< 100 µM
